The subject of one experiment is Miapaca-2 cells. The experiment in a line: MiaPaca-2 Combination Cell proliferation Assay (1) with cobimetinib. The conditions noted are these: MiaPaca-2 cell proliferation, read-out: MiaPaca-2 Combo (1) IC50. Type of experiment: cell-based. How it is done: MiaPaca-2 Combination Cell proliferation Assay (1)
Miapaca-2 cells (catalog #CRL-1420) are obtained from the American Type Culture Collect (ATCC, Manassas, VA). Briefly, cells were grown in DMEM supplemented with 10% characterized fetal bovine serum (Invitrogen, Carlsbad, CA), 2.5% New Zealand sourced horse serum and 1% Penicillin/Streptomycin/L-Glutamine at 37° C., 5% CO2, and 95% humidity. Cells are expanded until reaching 70-95% confluency at which point they are subcultured or harvested for assay use. A serial dilution of test compound was dispensed into multiple 96-well black clear bottom plates in triplicate. A serial dilution of complete growth medium containing cobimetinib was prepared at twice the final concentration and 100 μL was dispensed across the test compound titration in triplicate. Three thousand cells are added per well in 100 μL complete growth medium in each 96-well plate. Plates are incubated for 67-72 hours at 37° C., 5% CO2, and 95% humidity. At the end of the incubation, 40 μL of a 440 μM solution of resazurin (Sigma, St. Louis, MO) in PBS is added to each well of the plate and plates are incubated for an additional 5-7 hours at 37° C., 5% CO2, and 95% humidity. Plates are read on a Synergy2 or equivalent reader (Biotek, Winooski VT) using an excitation of 540 nm and an emission of 600 nm. Drug synergy was assessed via BLISS analysis in the Combenefit software (Cancer Research UK Cambridge Institute, Cambridge, UK). Data is analyzed using Prism software (Graphpad, San Diego, CA) to calculate IC50 values. Shifts in test compound IC50 values are reported from top-constrained combination therapy curves.
In the case of `Cc1ncc(NC(=O)c2ccnc(C(C)(C)C#N)c2)cc1-c1cccc(-c2ccnc(NC(=O)C3CC3)c2)n1` [Example 172], the IC50 was not above 0.1 µM.

With `CC(=O)Nc1cc(-c2cc(-c3cc(NC(=O)c4ccnc(C(F)(F)F)c4)c(F)cc3C)cc(C)n2)ccn1` [Example 4], the concentration for half-maximal inhibition (IC50) is not above 0.1 µM.

For the compound `CC(=O)Nc1cc(-c2ccnc(-c3cc(NC(=O)c4ccnc(C(C)(C)C#N)c4)ccc3C)n2)ccn1` [Example 103], the half-maximal inhibitory concentration (IC50) was not above 0.1 µM.

For `CNC(=O)c1cc(-c2nccc(-c3cc(NC(=O)c4ccnc(C5(C#N)CC5)c4)ccc3C)n2)ccn1` [Example 175], the IC50 was not above 0.1 µM.

For `Cc1cc(F)c(NC(=O)c2ccnc(C(F)(F)F)c2)cc1-c1ccnc(-c2ccnc(NC(=O)CN(C)C)c2)c1` [Example 7], the IC50 is 0.1 to 0.5 µM.

Take `CNC(=O)c1cc(-c2cc(-c3cc(NC(=O)c4ccnc(C(C)(C)C#N)c4)cnc3C)ccn2)ccn1` [Example 158]: the IC50 is not above 0.1 µM.

As to `CC(=O)Nc1cc(-c2cncc(-c3cc(NC(=O)c4cc(C(F)(F)F)ccn4)ccc3C)n2)ccn1` [Example 124], the IC50 is not above 0.1 µM.

With `CNC(=O)c1cc(-c2cc(-c3cc(NC(=O)c4cccc(C(C)(C)C#N)c4)ccc3C)ccn2)ccn1` [Example 127], the IC50 is not above 0.1 µM.

With `CNc1cc(-c2cccc(-c3cc(NC(=O)c4ccnc(C(C)(C)C#N)c4)ccc3C)c2)ncn1` [Example 160], the half-maximal inhibitory concentration (IC50) is 0.1 to 0.5 µM.

Take `Cc1ccc(NC(=O)c2ccnc(C(C)(C)C#N)c2)cc1-c1cncc(-c2ccnc(NC(=O)C3CC3)c2)n1` [Example 112]: the half-maximal inhibitory concentration (IC50) was not above 0.1 µM.

As to `Cc1ccc(NC(=O)c2ccnc(C(C)(C)C#N)c2)cc1-c1cccc(-c2ccnc3[nH]ncc23)c1` [Example 134], the 50% inhibitory concentration (IC50) lay within 0.1 to 0.5 µM.

As to `Cc1cc(F)c(NC(=O)c2ccnc(C(C)(C)C#N)c2)cc1-c1ccnc(-c2ccnc(NC=O)c2)c1` [Example 104], the 50% inhibitory concentration (IC50) is not above 0.1 µM.

On to `Cc1ncc(NC(=O)c2ccnc(C(C)(C)C#N)c2)cc1-c1cccc(-c2cc(NC(=O)C3CC3)ncn2)c1` [Example 181], for which the IC50 is not above 0.1 µM.

In the case of `CNC(=O)c1cc(-c2cncc(-c3cc(NC(=O)c4ccnc(C5(C#N)CC5)c4)ccc3C)n2)ccn1` [Example 138], the IC50 is 0.1 to 0.5 µM.

For the compound `Cc1ccc(NC(=O)c2ccnc(C3CC3)c2)cc1-c1cncc(-c2ccnc(NC(=O)C3CC3)c2)n1` [Example 184], the IC50 is not above 0.1 µM.

Regarding `CC(=O)Nc1cc(-c2nccc(-c3cc(NC(=O)c4ccnc(C(C)(C)C#N)c4)ccc3C)n2)ccn1` [Example 118], the IC50 is not above 0.1 µM.

`Cc1ccc(NC(=O)c2ccnc(C(F)F)c2)cc1-c1cncc(-c2ccnc(NC(=O)C3CC3)c2)n1` [Example 117]: the half-inhibitory concentration (IC50) was not above 0.1 µM.

Another experiment relates to WM3629 cells. As to the kind of experiment: WM3629 Cell Proliferation Assay (1).
Details: not given
Type of experiment: cell-based. How it is done: WM3629 Cell Proliferation Assay (1)
WM3629 cells (#WM3629-01-0001) are obtained from Rockland Immunochemicals Inc (Gilbertsville, PA). Briefly, cells were grown in MCDB 153 medium (Sigma, #M7403, St. Louis, MO) supplemented with 20% Leibovitz's L-15 (ThermoFisher #11415-064, Waltham, MA), 2% heat inactivated fetal bovine serum (ThermoFisher, #A3840001, Waltham, MA), 5 μg/mL Insulin (Bovine Pancreas) (Sigma, #10516, St. Louis, MO), 1.68 mM Calcium Chloride (Sigma, #C-34006, St. Louis, MO) and 1% Penicillin/Streptomycin/L-Glutamine (ThermoFisher #10378016, Waltham, MA) at 37° C., 5% CO2, and 95% humidity. Cells are expanded until reaching 70-95% confluency at which point they are subcultured or harvested for assay use. A serial dilution of test compound is dispensed into a 96-well black clear bottom plate in triplicate. Four thousand five hundred cells are added per well in 200 μL complete growth medium in the 96-well plate. Plates are incubated for 67-72 hours at 37° C., 5% CO2, and 95% humidity. At the end of the incubation, 40 μL of a 440 μM solution of resazurin (Sigma, #199303, St. Louis, MO) in PBS is added to each well of the plate and plates are incubated for an additional 6-7 hours at 37° C., 5% CO2, and 95% humidity. Plates are read on a Synergy2 or equivalent reader (Biotek, Winooski VT) using an excitation of 540 nm and an emission of 600 nm. Data is analyzed using Prism software (GraphPad, San Diego, CA) to calculate IC50 values.
On to `Cc1ccc(NC(=O)c2ccnc(C3(C#N)CC3)c2)cc1-c1ccnc(-c2ccnc(NC(=O)C3CC3)c2)n1` [Example 180], for which the 50% inhibitory concentration (IC50) is not above 0.1 µM.

Turning to `Cc1ncc(NC(=O)c2ccnc(C(C)(C)C#N)c2)cc1-c1cccc(-c2cc(NC(=O)C3CC3)ncn2)c1` [Example 181], the IC50 is not above 0.1 µM.

Turning to `CNC(=O)c1cc(-c2cc(-c3cc(NC(=O)c4ccnc(C5(C#N)CC5)c4)ccc3C)ncn2)ccn1` [Example 178], the IC50 was not above 0.1 µM.

Values taken from patent US12319655B2, “RAF kinase inhibitors and methods of use thereof” (Deciphera Pharmaceuticals, LLC, priority 2021, dated 2025).
